Values after ≈ are worked out from the molar mass of the structure shown.
Assays:
Assay type in all cases: functional
Pseudomonas aeruginosa [1] = assay: Antibacterial activity against Pseudomonas aeruginosa isolate 327 after 24 hrs by CLSI microdilution method
Pseudomonas aeruginosa [2] = assay: Antibacterial activity against Pseudomonas aeruginosa isolate 373 after 24 hrs by CLSI microdilution method
Pseudomonas aeruginosa [3] = assay: Antibacterial activity against Pseudomonas aeruginosa isolate 341 after 24 hrs by CLSI microdilution method
Pseudomonas aeruginosa [4] = assay: Antibacterial activity against Pseudomonas aeruginosa isolate 348 after 24 hrs by CLSI microdilution method
Acinetobacter baumannii [5] = assay: Antibacterial activity against Acinetobacter baumannii isolate 904 after 24 hrs by CLSI microdilution method
Pseudomonas aeruginosa [6] = assay: Antibacterial activity against Pseudomonas aeruginosa isolate 346 after 24 hrs by CLSI microdilution method
Pseudomonas aeruginosa [7] = assay: Antibacterial activity against Pseudomonas aeruginosa isolate 361 after 24 hrs by CLSI microdilution method
Acinetobacter baumannii [8] = assay: Antibacterial activity against Acinetobacter baumannii isolate 905 after 24 hrs by CLSI microdilution method
Acinetobacter baumannii [9] = assay: Antibacterial activity against Acinetobacter baumannii isolate 916 after 24 hrs by CLSI microdilution method
Pseudomonas aeruginosa [10] = assay: Antibacterial activity against Pseudomonas aeruginosa isolate 354 after 24 hrs by CLSI microdilution method
Pseudomonas aeruginosa [11] = assay: Antibacterial activity against Pseudomonas aeruginosa isolate 369 after 24 hrs by CLSI microdilution method
Pseudomonas aeruginosa [12] = assay: Antibacterial activity against Pseudomonas aeruginosa isolate 365 after 24 hrs by CLSI microdilution method
Acinetobacter baumannii [13] = assay: Antibacterial activity against Acinetobacter baumannii isolate 898 after 24 hrs by CLSI microdilution method
Pseudomonas aeruginosa [14] = assay: Antibacterial activity against Pseudomonas aeruginosa isolate 320 after 24 hrs by CLSI microdilution method
Acinetobacter baumannii [15] = assay: Antibacterial activity against Acinetobacter baumannii isolate 919 after 24 hrs by CLSI microdilution method
Acinetobacter baumannii [16] = assay: Antibacterial activity against Acinetobacter baumannii isolate 890 after 24 hrs by CLSI microdilution method
Pseudomonas aeruginosa [17] = assay: Antibacterial activity against Pseudomonas aeruginosa isolate 360 after 24 hrs by CLSI microdilution method
Pseudomonas aeruginosa [18] = assay: Antibacterial activity against Pseudomonas aeruginosa isolate 367 after 24 hrs by CLSI microdilution method
Pseudomonas aeruginosa [19] = assay: Antibacterial activity against Pseudomonas aeruginosa isolate 362 after 24 hrs by CLSI microdilution method
Pseudomonas aeruginosa [20] = assay: Antibacterial activity against Pseudomonas aeruginosa isolate 334 after 24 hrs by CLSI microdilution method
Acinetobacter baumannii [21] = assay: Antibacterial activity against Acinetobacter baumannii isolate 921 after 24 hrs by CLSI microdilution method
Pseudomonas aeruginosa [22] = assay: Antibacterial activity against Pseudomonas aeruginosa isolate 350 after 24 hrs by CLSI microdilution method
Pseudomonas aeruginosa [23] = assay: Antibacterial activity against Pseudomonas aeruginosa isolate 324 after 24 hrs by CLSI microdilution method
Acinetobacter baumannii [24] = assay: Antibacterial activity against Acinetobacter baumannii isolate 882 after 24 hrs by CLSI microdilution method
Pseudomonas aeruginosa [25] = assay: Antibacterial activity against Pseudomonas aeruginosa isolate 375 after 24 hrs by CLSI microdilution method
Pseudomonas aeruginosa [26] = assay: Antibacterial activity against Pseudomonas aeruginosa isolate 376 after 24 hrs by CLSI microdilution method
Acinetobacter baumannii [27] = assay: Antibacterial activity against Acinetobacter baumannii isolate 888 after 24 hrs by CLSI microdilution method
Acinetobacter baumannii [28] = assay: Antibacterial activity against Acinetobacter baumannii isolate 913 after 24 hrs by CLSI microdilution method
Acinetobacter baumannii [29] = assay: Antibacterial activity against Acinetobacter baumannii isolate 895 after 24 hrs by CLSI microdilution method
Acinetobacter baumannii [30] = assay: Antibacterial activity against Acinetobacter baumannii isolate 907 after 24 hrs by CLSI microdilution method
Acinetobacter baumannii [31] = assay: Antibacterial activity against Acinetobacter baumannii isolate 929 after 24 hrs by CLSI microdilution method
Pseudomonas aeruginosa [32] = assay: Antibacterial activity against Pseudomonas aeruginosa isolate 323 after 24 hrs by CLSI microdilution method
Acinetobacter baumannii [33] = assay: Antibacterial activity against Acinetobacter baumannii isolate 887 after 24 hrs by CLSI microdilution method
Acinetobacter baumannii [34] = assay: Antibacterial activity against Acinetobacter baumannii isolate 918 after 24 hrs by CLSI microdilution method
Pseudomonas aeruginosa [35] = assay: Antibacterial activity against Pseudomonas aeruginosa isolate 344 after 24 hrs by CLSI microdilution method
Acinetobacter baumannii [36] = assay: Antibacterial activity against Acinetobacter baumannii isolate 891 after 24 hrs by CLSI microdilution method; conditions: isolate 891, 24 h
Acinetobacter baumannii [37] = assay: Antibacterial activity against Acinetobacter baumannii isolate 899 after 24 hrs by CLSI microdilution method
Acinetobacter baumannii [38] = assay: Antibacterial activity against Acinetobacter baumannii isolate 908 after 24 hrs by CLSI microdilution method
Acinetobacter baumannii [39] = assay: Antibacterial activity against Acinetobacter baumannii isolate 901 after 24 hrs by CLSI microdilution method
Acinetobacter baumannii [40] = assay: Antibacterial activity against Acinetobacter baumannii isolate 914 after 24 hrs by CLSI microdilution method
Acinetobacter baumannii [41] = assay: Antibacterial activity against Acinetobacter baumannii isolate 910 after 24 hrs by CLSI microdilution method
Pseudomonas aeruginosa [42] = assay: Antibacterial activity against Pseudomonas aeruginosa isolate 353 after 24 hrs by CLSI microdilution method
Pseudomonas aeruginosa [43] = assay: Antibacterial activity against Pseudomonas aeruginosa isolate 359 after 24 hrs by CLSI microdilution method
Acinetobacter baumannii [44] = assay: Antibacterial activity against Acinetobacter baumannii isolate 885 after 24 hrs by CLSI microdilution method

Molecule: C[C@@H](O)[C@H]1C(=O)N2C(C(=O)O)=C(S[C@@H]3CN[C@H](C(=O)N(C)C)C3)[C@H](C)[C@H]12 [MEROPENEM]
- MIC (Pseudomonas aeruginosa [1]; isolate 327, 24 h): 2 µg/mL (≈ 5.22 µM)
- MIC (Pseudomonas aeruginosa [2]; isolate 373, 24 h): 2 µg/mL (≈ 5.22 µM)
- MIC (Pseudomonas aeruginosa [3]; isolate 341, 24 h): 0.5 µg/mL (≈ 1.3 µM)
- MIC (Pseudomonas aeruginosa [4]; isolate 348, 24 h): 0.25 µg/mL (≈ 0.652 µM)
- MIC (Acinetobacter baumannii [5]; isolate 904, 24 h): 2 µg/mL (≈ 5.22 µM)
- MIC (Pseudomonas aeruginosa [6]; isolate 346, 24 h): 1 µg/mL (≈ 2.61 µM)
- MIC (Pseudomonas aeruginosa [7]; isolate 361, 24 h): 0.25 µg/mL (≈ 0.652 µM)
- MIC (Acinetobacter baumannii [8]; isolate 905, 24 h): 0.5 µg/mL (≈ 1.3 µM)
- MIC (Acinetobacter baumannii [9]; isolate 916, 24 h): 8 µg/mL (≈ 20.9 µM)
- MIC (Pseudomonas aeruginosa [10]; isolate 354, 24 h): 0.12 µg/mL (≈ 0.313 µM)
- MIC (Pseudomonas aeruginosa [11]; isolate 369, 24 h): 2 µg/mL (≈ 5.22 µM)
- MIC (Pseudomonas aeruginosa [12]; isolate 365, 24 h): 1 µg/mL (≈ 2.61 µM)
- MIC (Acinetobacter baumannii [13]; isolate 898, 24 h): 8 µg/mL (≈ 20.9 µM)
- MIC (Pseudomonas aeruginosa [14]; isolate 320, 24 h): 2 µg/mL (≈ 5.22 µM)
- MIC (Acinetobacter baumannii [15]; isolate 919, 24 h): 1 µg/mL (≈ 2.61 µM)
- MIC (Acinetobacter baumannii [16]; isolate 890, 24 h): 1 µg/mL (≈ 2.61 µM)
- MIC (Pseudomonas aeruginosa [17]; isolate 360, 24 h): 0.25 µg/mL (≈ 0.652 µM)
- MIC (Pseudomonas aeruginosa [18]; isolate 367, 24 h): 0.25 µg/mL (≈ 0.652 µM)
- MIC (Pseudomonas aeruginosa [19]; isolate 362, 24 h): 0.5 µg/mL (≈ 1.3 µM)
- MIC (Pseudomonas aeruginosa [20]; isolate 334, 24 h): 1 µg/mL (≈ 2.61 µM)
- MIC (Acinetobacter baumannii [21]; isolate 921, 24 h): 1 µg/mL (≈ 2.61 µM)
- MIC (Pseudomonas aeruginosa [22]; isolate 350, 24 h): 2 µg/mL (≈ 5.22 µM)
- MIC (Pseudomonas aeruginosa [23]; isolate 324, 24 h): 0.25 µg/mL (≈ 0.652 µM)
- MIC (Acinetobacter baumannii [24]; isolate 882, 24 h): 1 µg/mL (≈ 2.61 µM)
- MIC (Pseudomonas aeruginosa [25]; isolate 375, 24 h): 0.5 µg/mL (≈ 1.3 µM)
- MIC (Pseudomonas aeruginosa [26]; isolate 376, 24 h): 16 µg/mL (≈ 41.7 µM)
- MIC (Acinetobacter baumannii [27]; isolate 888, 24 h): 1 µg/mL (≈ 2.61 µM)
- MIC (Acinetobacter baumannii [28]; isolate 913, 24 h): 0.25 µg/mL (≈ 0.652 µM)
- MIC (Acinetobacter baumannii [29]; isolate 895, 24 h): 8 µg/mL (≈ 20.9 µM)
- MIC (Acinetobacter baumannii [30]; isolate 907, 24 h): 0.5 µg/mL (≈ 1.3 µM)
- MIC (Acinetobacter baumannii [31]; isolate 929, 24 h): 0.5 µg/mL (≈ 1.3 µM)
- MIC (Pseudomonas aeruginosa [32]; isolate 323, 24 h): 1 µg/mL (≈ 2.61 µM)
- MIC (Acinetobacter baumannii [33]; isolate 887, 24 h): 1 µg/mL (≈ 2.61 µM)
- MIC (Acinetobacter baumannii [34]; isolate 918, 24 h): 0.25 µg/mL (≈ 0.652 µM)
- MIC (Pseudomonas aeruginosa [35]; isolate 344, 24 h): 0.5 µg/mL (≈ 1.3 µM)
- MIC (Acinetobacter baumannii [36]): 4 µg/mL (≈ 10.4 µM)
- MIC (Acinetobacter baumannii [37]; isolate 899, 24 h): 32 µg/mL (≈ 83.4 µM)
- MIC (Acinetobacter baumannii [38]; isolate 908, 24 h): 2 µg/mL (≈ 5.22 µM)
- MIC (Acinetobacter baumannii [39]; isolate 901, 24 h): 8 µg/mL (≈ 20.9 µM)
- MIC (Acinetobacter baumannii [40]; isolate 914, 24 h): 0.5 µg/mL (≈ 1.3 µM)
- MIC (Acinetobacter baumannii [41]; isolate 910, 24 h): 4 µg/mL (≈ 10.4 µM)
- MIC (Pseudomonas aeruginosa [42]; isolate 353, 24 h): 2 µg/mL (≈ 5.22 µM)
- MIC (Pseudomonas aeruginosa [43]; isolate 359, 24 h): 0.12 µg/mL (≈ 0.313 µM)
- MIC (Acinetobacter baumannii [44]; isolate 885, 24 h): 8 µg/mL (≈ 20.9 µM)

Molecule: COLISTIN
- MIC (Pseudomonas aeruginosa [1]): 2 µg/mL
- MIC (Pseudomonas aeruginosa [2]): 1 µg/mL
- MIC (Pseudomonas aeruginosa [3]): 0.5 µg/mL
- MIC (Pseudomonas aeruginosa [4]): 1 µg/mL
- MIC (Acinetobacter baumannii [5]): 16 µg/mL
- MIC (Pseudomonas aeruginosa [6]): 2 µg/mL
- MIC (Pseudomonas aeruginosa [7]): 1 µg/mL
- MIC (Acinetobacter baumannii [8]): 4 µg/mL
- MIC (Acinetobacter baumannii [9]): 0.12 µg/mL
- MIC (Pseudomonas aeruginosa [10]): 0.5 µg/mL
- MIC (Pseudomonas aeruginosa [11]): 2 µg/mL
- MIC (Pseudomonas aeruginosa [12]): 2 µg/mL
- MIC (Acinetobacter baumannii [13]): 1 µg/mL
- MIC (Pseudomonas aeruginosa [14]): 1 µg/mL
- MIC (Acinetobacter baumannii [15]): 0.5 µg/mL
- MIC (Acinetobacter baumannii [16]): 2 µg/mL
- MIC (Pseudomonas aeruginosa [17]): 1 µg/mL
- MIC (Pseudomonas aeruginosa [18]): 0.5 µg/mL
- MIC (Pseudomonas aeruginosa [19]): 1 µg/mL
- MIC (Pseudomonas aeruginosa [20]): 1 µg/mL
- MIC (Acinetobacter baumannii [21]): 1 µg/mL
- MIC (Pseudomonas aeruginosa [22]): 1 µg/mL
- MIC (Pseudomonas aeruginosa [23]): 2 µg/mL
- MIC (Acinetobacter baumannii [24]): 1 µg/mL
- MIC (Pseudomonas aeruginosa [25]): 0.5 µg/mL
- MIC (Pseudomonas aeruginosa [26]): 0.25 µg/mL
- MIC (Acinetobacter baumannii [27]): 4 µg/mL
- MIC (Acinetobacter baumannii [28]): 0.25 µg/mL
- MIC (Acinetobacter baumannii [29]): 2 µg/mL
- MIC (Acinetobacter baumannii [30]): 1 µg/mL
- MIC (Acinetobacter baumannii [31]): 32 µg/mL
- MIC (Pseudomonas aeruginosa [32]): 0.25 µg/mL
- MIC (Acinetobacter baumannii [33]): 16 µg/mL
- MIC (Acinetobacter baumannii [34]): 4 µg/mL
- MIC (Pseudomonas aeruginosa [35]): 0.5 µg/mL
- MIC (Acinetobacter baumannii [37]): 32 µg/mL
- MIC (Acinetobacter baumannii [38]): 0.5 µg/mL
- MIC (Acinetobacter baumannii [39]): 8 µg/mL
- MIC (Acinetobacter baumannii [40]): 2 µg/mL
- MIC (Acinetobacter baumannii [41]): 0.25 µg/mL
- MIC (Pseudomonas aeruginosa [42]): 0.25 µg/mL
- MIC (Pseudomonas aeruginosa [43]): 0.5 µg/mL
- MIC (Acinetobacter baumannii [44]): 2 µg/mL
